# Measurements: article PMC314469, “Protein Interaction Networks by Proteome Peptide Scanning” (PLoS Biology, 2004)
# System: Myo5 SH3 domain
# Assay: SPOT analysis of cellulose-bound peptides (WISE), Myo5 SH3 domain (Dataset S4)
# Type: binding, Saccharomyces cerevisiae
# Details: for The normalized value in BLU units: Myo5 SH3 domain
# [1] = SPOT analysis of cellulose-bound peptides probed with Myo5 SH3 domain, normalized value
# [2] = SPOT analysis of cellulose-bound 14-mer yeast proteome peptides, normalized value, mean where the peptide was synthesized more than once
# [3] = SPOT analysis of membrane-bound peptides, normalized value (see methods)
# [4] = SPOT analysis of membrane-synthesized peptides probed with Myo5 SH3 domain, normalized value
sequence,measurement,setting,value
AADSHAIPVDPPSY,"The normalized value in BLU units (SPOT analysis, Myo5 SH3)",[1],37.9 BLU
AADWYEVPKVPLSA,The normalized value in BLU units,[2],275.4 BLU
AALVKFVPSKPMCV,The normalized value in BLU units,[3],280.9 BLU
AAMMLGNPMAPAVQ,The normalized value in BLU units,[2],256.9 BLU
AAMNLETPSNPDSA,The normalized value in BLU units,[2],84.9 BLU
AANAHISPPVPGPA,"The normalized value in BLU units (SPOT analysis, Myo5 SH3)",[1],28.6 BLU
AAPKHAPPPVPNET,"The normalized value in BLU units (SPOT analysis, Myo5 SH3)",[1],110580.8 BLU
AARILANPDHPFSR,The normalized value in BLU units,[2],165.5 BLU
AAVRLDQPILPQND,"The normalized value in BLU units (SPOT analysis, Myo5 SH3)",[1],105.1 BLU
AAYDHAEPVQPEDA,"The normalized value in BLU units (SPOT analysis, Myo5 SH3)",[1],146.1 BLU
ADDLKYIPPIPQDF,The normalized value in BLU units,[3],86.7 BLU
AEAYLVTPEEPAKN,The normalized value in BLU units,[2],39.6 BLU
AEFDLTDPEVPSFY,The normalized value in BLU units,[2],165.8 BLU
AEIVKLTPKNPFYK,"The normalized value in BLU units (SPOT analysis, Myo5 SH3)",[4],102.1 BLU
AELFLGIPIFPGAS,"The normalized value in BLU units (SPOT analysis, Myo5 SH3)",[1],36.7 BLU
AELFLRRPIFPGRD,"The normalized value in BLU units (SPOT analysis, Myo5 SH3)",[1],215.9 BLU
AELLLGQPMFPGES,"The normalized value in BLU units (SPOT analysis, Myo5 SH3)",[1],172.2 BLU
AELMLRIPYLPGQN,"The normalized value in BLU units (SPOT analysis, Myo5 SH3)",[1],236.4 BLU
AERAKKAPSLPEGQ,"The normalized value in BLU units (SPOT analysis, Myo5 SH3)",[4],389.2 BLU
AEVYYGPPTDPRKQ,"The normalized value in BLU units (SPOT analysis, Myo5 SH3)",[1],83.5 BLU
AFHELGIPVIPNPS,"The normalized value in BLU units (SPOT analysis, Myo5 SH3)",[1],193.0 BLU
AFHFWRPPIAPAEM,"The normalized value in BLU units (SPOT analysis, Myo5 SH3)",[1],1961.3 BLU
AFVPKRKPSLPQLA,"The normalized value in BLU units (SPOT analysis, Myo5 SH3)",[4],1744.9 BLU
AFWWKKNPKTPSDY,The normalized value in BLU units,[3],65.0 BLU
AFYYKYYPVEPNCN,"The normalized value in BLU units (SPOT analysis, Myo5 SH3)",[4],187.7 BLU
AGHIKTHPNSPTPG,The normalized value in BLU units,[2],60.3 BLU
AGLYKLSPLYPFDV,"The normalized value in BLU units (SPOT analysis, Myo5 SH3)",[4],133.2 BLU
AGMAKTKPDVPLSY,The normalized value in BLU units,[3],157.7 BLU
AGPRKYIPRAPAQG,The normalized value in BLU units,[3],194.7 BLU
AGQERFAPLAPMYY,The normalized value in BLU units,[3],100.8 BLU
AISKKLGPDTPIKV,"The normalized value in BLU units (SPOT analysis, Myo5 SH3)",[4],176.5 BLU
AKDYRFNPAIPLRI,"The normalized value in BLU units (SPOT analysis, Myo5 SH3)",[4],304.4 BLU
AKIDKVSPEDPWVL,"The normalized value in BLU units (SPOT analysis, Myo5 SH3)",[4],248.0 BLU
AKINKVSPEDPWVL,"The normalized value in BLU units (SPOT analysis, Myo5 SH3)",[4],121.0 BLU
AKLHRTKPVKPLSK,The normalized value in BLU units,[3],501.8 BLU
AKLRKFHPPEPYKG,The normalized value in BLU units,[3],119.3 BLU
AKSNKVSPEDPAVQ,The normalized value in BLU units,[2],371.0 BLU
AKTNKNVPVLPTPG,"The normalized value in BLU units (SPOT analysis, Myo5 SH3)",[4],130.3 BLU
AKVNKCPPDHPYIQ,"The normalized value in BLU units (SPOT analysis, Myo5 SH3)",[4],164.3 BLU
ALDNFTLPGTPGFP,The normalized value in BLU units,[2],180.7 BLU
ALDYLIPPPMPKNQ,"The normalized value in BLU units (SPOT analysis, Myo5 SH3)",[1],130.6 BLU
ALEERFDPKSPTKR,"The normalized value in BLU units (SPOT analysis, Myo5 SH3)",[4],108.5 BLU
ALGFYRAPGSPAPA,"The normalized value in BLU units (SPOT analysis, Myo5 SH3)",[1],100.8 BLU
ALGIFFAPESPWWL,The normalized value in BLU units,[2],229.3 BLU
ALKEMTHPIKPSAQ,"The normalized value in BLU units (SPOT analysis, Myo5 SH3)",[1],261.0 BLU
ALKSLSNPSSPWQQ,"The normalized value in BLU units (SPOT analysis, Myo5 SH3)",[1],30.3 BLU
ALLIKTVPGFPLLE,"The normalized value in BLU units (SPOT analysis, Myo5 SH3)",[4],144.3 BLU
ALLRRTIPKRPFYH,"The normalized value in BLU units (SPOT analysis, Myo5 SH3)",[4],914.3 BLU
ALNNWILPSTPHIQ,"The normalized value in BLU units (SPOT analysis, Myo5 SH3)",[1],169.3 BLU
ALRKFGYPFSPNDP,The normalized value in BLU units,[2],166.2 BLU
ALSTKGYPHEPPLL,"The normalized value in BLU units (SPOT analysis, Myo5 SH3)",[4],138.6 BLU
ALWAKFFPEKPLNI,The normalized value in BLU units,[2],154.0 BLU
ALYHLSNPNVPKLW,The normalized value in BLU units,[2],195.7 BLU
AMESRVAPEIPGLI,The normalized value in BLU units,[3],426.0 BLU
APAPPPPPQMPAT,"The normalized value in BLU units (SPOT analysis, Myo5 SH3)",[1],7749 BLU
APKKWKAPKGPKPT,The normalized value in BLU units,[2],1010.5 BLU
APKYYVPPGIPTND,"The normalized value in BLU units (SPOT analysis, Myo5 SH3)",[1],10351.6 BLU
APLLYSCPSEPMAY,The normalized value in BLU units,[2],83.1 BLU
APPALSAPSIPPVP,The normalized value in BLU units,[2],10786.3 BLU
APPALSAPSVPPVP,The normalized value in BLU units,[2],6575.3 BLU
APPPKEEPAAPTST,The normalized value in BLU units,[3],116.7 BLU
APQPHLLPWLPPTD,The normalized value in BLU units,[2],117.4 BLU
APVVKSEPSLPRMR,"The normalized value in BLU units (SPOT analysis, Myo5 SH3)",[4],241.2 BLU
AQKLKLLPEEPFQR,The normalized value in BLU units,[3],400.9 BLU
ASFRKTKPPPPLDF,"The normalized value in BLU units (SPOT analysis, Myo5 SH3)",[4],169.0 BLU
ASKHKMFPFNPAKI,The normalized value in BLU units,[3],953.1 BLU
ATEAKCLPKIPSIP,The normalized value in BLU units,[3],136.7 BLU
ATGKRKLPGWPSAD,"The normalized value in BLU units (SPOT analysis, Myo5 SH3)",[4],136.1 BLU
ATKRKTIPVYPPVQ,The normalized value in BLU units,[3],273.7 BLU
ATVVKNCPGDPELF,The normalized value in BLU units,[3],76.2 BLU
AVGGKWEPGNPIAI,"The normalized value in BLU units (SPOT analysis, Myo5 SH3)",[4],78.4 BLU
